Reference: patent EP0579169B1, “Alkylenediamine derivatives” (NIPPON CHEMIPHAR CO., LTD., priority 1992, dated 1994)

Columns and labels:
[1] = tested on: rhythmic bladder contraction; assay: Test for inhibition of urinating contraction of bladder (rhythmic bladder contraction, anesthetized rat, saline infusion into the closed bladder); assay type: in vivo; details: i.v., urethane-anesthetized male Wistar rat, control (physiological saline) 1.6 min.
Method: (I) Test for Inhibition of Urinating Contraction of Bladder
With respect to inhibition of the urinating contraction of bladder, performance of the compound of the present invention was evaluated by the following method.
A male Wistar rat was anesthetized with urethane (1.5 g/kg, s.c.) and fixed on its back on a board. Into the trachea of the rat, a tracheotomy tube was inserted in order to insure an airway, and then midline incisura was carried out to denude the bladder. Subsequently, a small opening was produced on the top of the bladder and the urine was exhausted, and then a polyethylene cannula (diameter: approx. 1 mm) was inserted into the bladder. The urethra and the ureter were tied up to make the bladder a closed system.
By means of an infusion pump, phsiological saline was poured into the bladder of rat at a rate of 0.05 ml/min. induce the rhythmic bladder contraction. Subsequently, intravesical pressure was measured by a pressure transducer and recorded on a pen-writing recorder. The test compound was dissolved in physiological saline and then administered into the femoral vein through a polyethylene cannula.
Performance for inhibiting the urinary bladder contraction was evaluated by measuring the period (inhibiting period) in which the rhythmic bladder contraction was inhibited. As the medicament, each of the compounds obtained in Examples was used.

[2] = tested on: mouse; assay: Toxicity, LD50 by the up-and-down method; assay type: in vivo; details: i.v.
Text: (§1) With respect to toxicity of the compounds of the invention, each LD50 (mg/kg) measured by the up-and-down method is also set forth in Table 1.

[3] = Toxicity, LD50 by the up-and-down method; assay type: in vivo; details: mouse, in vivo, iv
Text: as §1

[4] = tested on: Urinary bladder strips; assay: Effect on isolated urinary bladder smooth muscle (contraction elicited by acetylcholine or norepinephrine); set-up: species or system male Japanese white rabbits; details: rabbit urinary bladder strips, Krebs solution 37°C; pretreatment five minutes before, concentration 1x10^-5 to 3x10^-5 (unit not given)
Method: (II) Effect on Isolated Urinary Bladder Smooth Muscle
Urinary bladder strips were obtained from male Japanese white rabbits (weight: 2.00-2.80 kg). Each strip was suspended in an organ bath containing Krebs solution. The organ bath was maintained at 37°C and constantly gassed with carbogen. Cumulative concentration-response curves of acetylcholine and norepinephrine were obtained.
The compound to be tested (compound of Example 2 (i.e., 5-benzyl-3-(3-morpholino-1-phenylpropyl)-1,3-oxazolidin-2-one fumarate) was introduced into the Krebs solution five minutes prior to the introduction of acetylcholine or norepinephrine to elicit the contractive action.
Therefore, it has been confirmed that the tested compound depresses the bladder contraction not by acting on the peripheral nerves system but on the central nurves system.

O=C(O)/C=C/C(=O)O.O=C1OC(Cc2ccccc2)CN1C(CCN1CCOCC1)c1ccccc1 (single isomer, unassigned; (-)) [Example 3, (-)-5-Benzyl-3-(3-morpholino-1-phenylpropyl)-1,3-oxazolidin-2-one fumarate]
Period (inhibiting period in which the rhythmic bladder contraction was inhibited) ([1]; dose 8 mg/kg, fumarate): 6.0 min | LD50/mouse ([2]; fumarate): 49 mg/kg

O=C(O)/C=C/C(=O)O.O=C1OCC(Cc2ccccc2)N1C(CCN1CCOCC1)c1ccccc1 (single isomer, unassigned) [Example 69, 4-Benzyl-3-(3-morpholino-1-phenylpropyl)-1,3-oxazolidin-2-one fumarate]
Period (inhibiting period in which the rhythmic bladder contraction was inhibited) ([1]; dose 8 mg/kg): 6.6 min | LD50 [3]: 76 mg/kg

O=C(O)/C=C/C(=O)O.O=C1COC(Cc2ccccc2Br)CN1C(CCN1CCOCC1)c1ccccc1 (single isomer, unassigned) [Example 70, 2-(2-Bromobenzyl)-4-(3-morpholino-1-phenylpropyl)-5-morpholinone fumarate]
Period (inhibiting period in which the rhythmic bladder contraction was inhibited) ([1]; dose 6 mg/kg): 1.5 min | LD50 [3]: > 60 mg/kg

O=C(O)/C=C/C(=O)O.O=C1OC(Cc2cccs2)CN1C(CCN1CCOCC1)c1ccccc1 (single isomer, unassigned) [Example 55, 3-(3-Morpholino-1-phenylpropyl)-5-(2-thenyl)-1,3-oxazolidin-2-one fumarate]
Period (inhibiting period in which the rhythmic bladder contraction was inhibited) ([1]; dose 8 mg/kg): 4.6 min | LD50 [3]: 84 mg/kg

CS(=O)(=O)O.O=C1OC(Cc2cccc3ccccc23)CN1C(CCN1CCOCC1)c1ccccc1 (single isomer, unassigned) [Example 46, 5-(1-Naphthyl)methyl-3-(3-morpholino-1-phenylpropyl)-1,3-oxazolidin-2-one mesylate]
Period (inhibiting period in which the rhythmic bladder contraction was inhibited) ([1]; dose 5 mg/kg): 6.0 min | LD50 [3]: > 20 mg/kg

O=C(O)/C=C/C(=O)O.O=C1OC(Cc2ccccc2)CN1C(CCN1CCOCC1)c1ccccc1 (single isomer, unassigned; (+)) [Example 4, (+)-5-Benzyl-3-(3-morpholino-1-phenylpropyl)-1,3-oxazolidin-2-one fumarate]
Period (inhibiting period in which the rhythmic bladder contraction was inhibited) ([1]; dose 8 mg/kg, fumarate): 3.8 min | LD50/mouse ([2]; fumarate): 77 mg/kg

CC(C)CC1COC(=O)N1C(CCN1CCOCC1)c1ccccc1.O=C(O)/C=C/C(=O)O (single isomer, unassigned) [Example 67, 4-Isobutyl-3-(3-morpholino-1-phenylpropyl)-1,3-oxazolidin-2-one fumarate]
Period (inhibiting period in which the rhythmic bladder contraction was inhibited) ([1]; dose 14 mg/kg): 3.5 min | LD50 [3]: 137 mg/kg

O=C(O)/C=C/C(=O)O.O=C1OC(Cc2ccccc2)CN1C(CCN1CCOCC1)c1ccccc1 (single isomer, unassigned) [Example 2, 5-Benzyl-3-(3-morpholino-1-phenylpropyl)-1,3-oxazolidin-2-one fumarate]
Period (inhibiting period in which the rhythmic bladder contraction was inhibited) ([1]; dose 8 mg/kg, fumarate): 5.4 min | LD50 [3]: 76 mg/kg | action on the contraction caused by acetylcholine [4]: did not give any effective action | action on the contraction caused by norepinepherine [4]: did not give any effective action

O=C1OC(Cc2ccccc2)CN1C(CCN1CCOCC1)c1cccs1 (single isomer, unassigned) [Example 62, 5-Benzyl-3-[3-morpholino-1-(2-thienyl)propyl]-1,3-oxazolidin-2-one]
Period (inhibiting period in which the rhythmic bladder contraction was inhibited) ([1]; dose 6 mg/kg): 7.2 min | LD50/mouse [2]: 63 mg/kg

O=C(O)/C=C/C(=O)O.O=C1OC(Cc2ccccc2Br)CN1C(CCN1CCOCC1)c1ccccc1 (single isomer, unassigned) [Example 13, 5-(2-Bromophenyl)methyl-3-(3-morpholino-1-phenylpropyl)-1,3-oxazolidin-2-one fumarate]
Period (inhibiting period in which the rhythmic bladder contraction was inhibited) ([1]; dose 5 mg/kg): 6.5 min | LD50 [3]: 48 mg/kg

O=C(O)/C=C/C(=O)O.O=C1OC(CCc2ccccc2Br)CN1C(CCN1CCOCC1)c1ccccc1 (single isomer, unassigned) [Example 25, 5-[2-(2-bromophenyl)ethyl]-3-(3-morpholino-1-phenylpropyl)-1,3-oxazolidin-2-one fumarate]
Period (inhibiting period in which the rhythmic bladder contraction was inhibited) ([1]; dose 8 mg/kg): 7.5 min | LD50 [3]: 79 mg/kg

O=C1OC(Cc2ccccc2)CN1C(CCN1CCOCC1)c1cccs1 (single isomer, unassigned) [Example 61, 5-Benzyl-3-[3-morpholino-1-(2-thienyl)propyl]-1,3-oxazolidin-2-one]
Period (inhibiting period in which the rhythmic bladder contraction was inhibited) ([1]; dose 6 mg/kg): 6.5 min | LD50 [3]: 59 mg/kg

O=C(O)/C=C/C(=O)O.O=C1OC(CCc2ccccc2Cl)CN1C(CCN1CCOCC1)c1ccccc1 (single isomer, unassigned) [Example 27, 5-[2-(2-Chlorophenyl)ethyl]-3-(3-morpholino-1-phenylpropyl)-1,3-oxazolidin-2-one fumarate]
Period (inhibiting period in which the rhythmic bladder contraction was inhibited) ([1]; dose 8 mg/kg): 8.0 min | LD50 [3]: 75 mg/kg

O=C(O)/C=C/C(=O)O.O=C1OC(CCc2ccccc2)CN1C(CCN1CCOCC1)c1ccccc1 (single isomer, unassigned) [Example 50, 3-(3-Morpholino-1-phenylpropyl)-5-(2-phenylethyl)-1,3-oxazolidin-2-one fumarate]
Period (inhibiting period in which the rhythmic bladder contraction was inhibited) ([1]; dose 5 mg/kg): 7.5 min | LD50 [3]: 45 mg/kg

O=C(O)/C=C/C(=O)O.O=C1OC(Cc2cccs2)CN1C(CCN1CCOCC1)c1ccccc1 (single isomer, unassigned) [Example 56, 3-(3-Morpholino-1-phenylpropyl)-5-(2-thenyl)-1,3-oxazolidin-2-one fumarate]
Period (inhibiting period in which the rhythmic bladder contraction was inhibited) ([1]; dose 11 mg/kg): 4.7 min | LD50/mouse ([2]; fumarate): 111 mg/kg
